{"source": "patent US20240269132A1", "about": "“COMPOSITIONS AND METHODS FOR TREATING POLYCYTHEMIA” (Disc Medicine, Inc., priority 0001, published 2024)", "type_in_all_cases": "in vivo, C57BL/6J mice", "key": {"[1]": {"system": "DPO-induced secondary erythrocytosis model", "assay": "DPO-induced secondary erythrocytosis murine model: CBC panel", "protocol": "Darbepoietin-alpha (DPO) is a long-lasting analogue of EPO. To investigate the in vivo pharmacodynamic effect of GlyT1 inhibitor in preventing, treating, or reducing the progression rate and/or severity of polycythemia vera for longer periods, DPO was used to stimulate the production of red blood cells and mimicking the hematological features of polycythemia vera where JAK2 mutation drives the erythrocytosis.\n(§1) Briefly, C57BL/6J mice were administrated with DPO subcutaneously at 10 μg/kg/week for 2 weeks to induce erythrocytosis resembling the pathological process of polycythemia vera (FIG. 2A). 30 mg/kg or 60 mg/kg of GlyT1 inhibitor bitopertin or vehicle control was administrated orally into wild type C57BL/6J mice (10 mice per group for the vehicle and 30 mg/kg groups; 15 mice for the 60 mg/kg group) once daily from day 7 to day 15. The 60 mg/kg group was dosed at 20 mg/kg on day 7, 40 mg/kg on day 8-9, 50 mg/kg on day 10-11, 60 mg/kg on day 12-15. Blood samples were collected from submaxillary on day 0 before the first DPO administration, on day 7 before the first dose of GlyT1 inhibitor, and on day 15, 6 hours after the dosing of GlyT1 inhibitor for CBC panel analysis using Sysmex XN-1000™ hematology analyzer."}, "[2]": {"assay": "Body weight in the EPO-induced erythrocytosis study", "settings": "30 mg/kg orally once daily, 14-day treatment, EPO model (FIG. 1B)", "source_text": "(§2) The EPO-induced secondary erythrocytosis model was used to evaluate the in vivo pharmacodynamic effect of GlyT1 inhibitor in preventing, treating, or reducing the progression rate and/or severity of polycythemia vera. Erythropoietin (EPO) stimulates the production of red blood cells and results in increased hematocrit in mice after daily dosing for 7 days at 50 IU. Therefore, the EPO model mimics the hematological parameters of polycythemia vera where JAK2 mutation drives the erythrocytosis. Briefly, 30 mg/kg of GlyT1 inhibitor bitopertin or vehicle control was administrated orally into wildtype C57BL/6J mice (10 mice per group) once daily from day 1 to day 15. 50 IU EPO was administrated daily by intraperitoneal route from day 8 to day 14 to induce erythrocytosis resembling the pathological process of polycythemia vera (FIG. 1A). Blood samples were collected from submaxillary on day 8 before the first EPO administration and on day 15, 6 hours after the last dose of GlyT1 inhibitor for CBC panel analysis using Sysmex XN-1000™ hematology analyzer. Bioanalysis of drug concentration was performed in plasma collected 6 hours after the last dose. All mice were weighed and humanely euthanized. The spleen was weighed and the spleen index was calculated via dividing the weight of spleen by the whole-body weight."}, "[3]": {"assay": "Body weight in the DPO-induced erythrocytosis study", "settings": "30 or 60 mg/kg orally once daily, 8-day treatment, DPO model (FIG. 2B)", "protocol": "as §1"}, "[4]": {"system": "EPO-induced secondary erythrocytosis model", "assay": "EPO-induced secondary erythrocytosis murine model: spleen index and CBC panel", "settings": "30 mg/kg orally once daily", "source_text": "as §2"}, "[5]": {"assay": "Plasma drug concentration in the EPO-induced erythrocytosis study", "settings": "C57BL/6J, mouse, po, 6 hours after the last dose, 30 mg/kg orally once daily day 1 to 15, mice (FIG. 1C)", "source_text": "as §2"}}}
{"smiles": "C[C@H](Oc1ccc(S(C)(=O)=O)cc1C(=O)N1CCN(c2ncc(C(F)(F)F)cc2F)CC1)C(F)(F)F", "note": "[bitopertin]", "values": [{"measurement": "reticulocyte hemoglobin (RET-He)", "setting": "[1]; 30 or 60 mg/kg orally once daily day 7-15, DPO model (FIG. 2F)", "value": "significant reduction"}, {"measurement": "mean corpuscular hemoglobin (MCH)", "setting": "[1]; 30 or 60 mg/kg orally once daily day 7-15, DPO model (FIG. 2G)", "value": "significant reduction"}, {"measurement": "mean corpuscular volume (MCV)", "setting": "[1]; 30 or 60 mg/kg orally once daily day 7-15, DPO model (FIG. 2H)", "value": "slightly reduced"}, {"measurement": "hematocrit (HCT %)", "setting": "[1]; 30 or 60 mg/kg orally once daily day 7-15, DPO model, in a dose dependent manner (FIG. 2C)", "value": "reduced"}, {"measurement": "RBC count", "setting": "[1]; 30 or 60 mg/kg orally once daily day 7-15, DPO model, in a dose dependent manner (FIG. 2D)", "value": "reduced"}, {"measurement": "Hemoglobin levels (HGB)", "setting": "[1]; 30 or 60 mg/kg orally once daily day 7-15, DPO model, in a dose dependent manner (FIG. 2E)", "value": "reduced"}, {"measurement": "body-weight changes", "setting": "[2]", "value": "No major body-weight changes"}, {"measurement": "body-weight changes", "setting": "[3]", "value": "No major body-weight changes"}, {"measurement": "hematocrit (HCT %)", "setting": "[4]; EPO model, day 15 (FIG. 1E)", "value": "reduced"}, {"measurement": "RBC count", "setting": "[4]; EPO model, day 15 (FIG. 1F)", "value": "reduced"}, {"measurement": "Hemoglobin levels", "setting": "[4]; EPO model, day 15 (FIG. 1G)", "value": "reduced"}, {"measurement": "spleen index (spleen weight / whole-body weight)", "setting": "[4]; EPO 50 IU i.p. day 8-14, EPO + vehicle 1.56%, normal mice 0.39% (FIG. 1D)", "value": 1.26, "unit": "%"}, {"measurement": "concentration at 6 h", "setting": "[5]", "value": "639 ± 38", "unit": "ng/mL"}]}
